According to patent US8802597B2, “Herbicidal pyrimidines” (E I du Pont de Nemours and Company, priority 2003, dated 2014):

Assays:
Type in all cases: in vivo
[1] = tested on: velvetleaf (Abutilon theophrasti); assay: Test A pre/postemergence
Method in brief: (§1)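 Pre/post greenhouse screen; loam/sand soil; solvent + surfactant formulation; pre = directed soil spray at planting, post = 1–2 leaf plants, 2–10 cm; ~10 d; visual 0–100 rating vs untreated.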

[2] = tested on: giant foxtail (Setaria faberi); assay: Test A pre/postemergence
Method in brief: as §1

[3] = tested on: barnyardgrass (Echinochloa crus-galli); assay: Test A pre/postemergence
Method in brief: as §1

[4] = tested on: morningglory (Ipomoea spp.); assay: Test A pre/postemergence
Method in brief: as §1

[5] = tested on: redroot pigweed (Amaranthus retroflexus); assay: Test A pre/postemergence
Method in brief: as §1

[6] = tested on: crabgrass (Digitaria sanguinalis); assay: Test A pre/postemergence
Method in brief: as §1

[7] = tested on: cocklebur (Xanthium strumarium); assay: Test C pre/postemergence; settings: for Plant response rating, Cocklebur: Preemergence
Method in brief: (§2)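 Greenhouse pot test: seeds treated preemergence, or plants at 2–18 cm (1- to 4-leaf stage) treated postemergence, with compound in non-phytotoxic solvent plus surfactant. Visual rating versus untreated controls after 12–14 days, scale 0 (no effect) to 100 (complete control); dash means not tested.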

[8] = tested on: pigweed (Amaranthus retroflexus); assay: Test C pre/postemergence; settings: for Plant response rating, Pigweed: Preemergence, scale 0 to 100, 0 no effect, 100 complete control
Method in brief: as §2

kochia (Kochia scoparia) = assay: Test C pre/postemergence; settings: for Plant response rating, Kochia: Preemergence
Method in brief: as §2

[9] = tested on: crabgrass (Digitaria sanguinalis); assay: Test C pre/postemergence; settings: for Plant response rating, Crabgrass: Preemergence
Method in brief: as §2

[10] = tested on: johnsongrass (Sorghum halepense); assay: Test C pre/postemergence; settings: for Plant response rating, Johnsongrass: Preemergence
Method in brief: as §2

[11] = Postemergence, 125 g ai/ha, 0 to 100 scale (0 no effect, 100 complete control)
[12] = Postemergence, 500 g ai/ha, 0 to 100 scale (0 no effect, 100 complete control)
[13] = Preemergence, 125 g ai/ha, 0 to 100 scale where 0 is no effect and 100 is complete control, approximately ten days
[14] = Preemergence, 500 g ai/ha, 0 to 100 scale where 0 is no effect and 100 is complete control, approximately ten days
[15] = 16 g ai/ha, scale 0 to 100, 0 no effect, 100 complete control
[16] = 31 g ai/ha, scale 0 to 100, 0 no effect, 100 complete control
[17] = 62 g ai/ha, scale 0 to 100, 0 no effect, 100 complete control
[18] = Postemergence, 125 g ai/ha, scale 0 to 100 (0 no effect, 100 complete control)

## CCCOC(=O)c1nc(C2CC2)nc(N)c1Cl [Compound 75]
[1]; [11]
  Plant response rating, Velvetleaf: 85
[1]; [12]
  Plant response rating, Velvetleaf: 100
[1]; [13]
  Plant response rating, Velvetleaf: 80
[1]; [14]
  Plant response rating, Velvetleaf: 95
[2]; [11]
  Plant response rating, Foxtail, Giant: 90
[2]; [12]
  Plant response rating, Foxtail, Giant: 90
[2]; [13]
  Plant response rating, Foxtail, Giant: 75
[2]; [14]
  Plant response rating, Foxtail, Giant: 90
[3]; [11]
  Plant response rating, Barnyardgrass: 85
[3]; [12]
  Plant response rating, Barnyardgrass: 90
[3]; [13]
  Plant response rating, Barnyardgrass: 70
[3]; [14]
  Plant response rating, Barnyardgrass: 95
[4]; [11]
  Plant response rating, Morningglory: 90
[4]; [12]
  Plant response rating, Morningglory: 90
[4]; [13]
  Plant response rating, Morningglory: 95
[4]; [14]
  Plant response rating, Morningglory: 100
[5]; [11]
  Plant response rating, Pigweed: 90
[5]; [12]
  Plant response rating, Pigweed: 100
[5]; [13]
  Plant response rating, Pigweed: 90
[5]; [14]
  Plant response rating, Pigweed: 95
[6]; [11]
  Plant response rating, Crabgrass: 80
[6]; [12]
  Plant response rating, Crabgrass: 90
[6]; [13]
  Plant response rating, Crabgrass: 85
[6]; [14]
  Plant response rating, Crabgrass: 90
[7]; [15]
  Plant response rating, Cocklebur: 55
[7]; [16]
  Plant response rating, Cocklebur: 90
[7]; [17]
  Plant response rating, Cocklebur: 95
[7]; 125 g ai/ha, scale 0 to 100
  Plant response rating, Cocklebur: 100
[8]; 16 g ai/ha
  Plant response rating, Pigweed: 70
[8]; 31 g ai/ha
  Plant response rating, Pigweed: 75
[8]; 62 g ai/ha
  Plant response rating, Pigweed: 80
Kochia (Kochia scoparia); [15]
  Plant response rating, Kochia: 70
Kochia (Kochia scoparia); [16]
  Plant response rating, Kochia: 80
Kochia (Kochia scoparia); [17]
  Plant response rating, Kochia: 100
Kochia (Kochia scoparia); 125 g ai/ha, scale 0 to 100
  Plant response rating, Kochia: 100
[9]; [15]
  Plant response rating, Crabgrass: 0
[9]; [16]
  Plant response rating, Crabgrass: 10
[9]; [17]
  Plant response rating, Crabgrass: 20
[9]; 125 g ai/ha, scale 0 to 100
  Plant response rating, Crabgrass: 60
[10]; [15]
  Plant response rating, Johnsongrass: 0
[10]; [16]
  Plant response rating, Johnsongrass: 0
[10]; [17]
  Plant response rating, Johnsongrass: 50
[10]; 125 g ai/ha, scale 0 to 100
  Plant response rating, Johnsongrass: 55

## CCCCOC(=O)c1nc(C2CC2)nc(N)c1Cl [Compound 76]
[1]; [11]
  Plant response rating, Velvetleaf: 80
[1]; [12]
  Plant response rating, Velvetleaf: 100
[1]; [13]
  Plant response rating, Velvetleaf: 90
[1]; [14]
  Plant response rating, Velvetleaf: 100
[2]; [11]
  Plant response rating, Foxtail, Giant: 90
[2]; [12]
  Plant response rating, Foxtail, Giant: 90
[2]; [13]
  Plant response rating, Foxtail, Giant: 70
[2]; [14]
  Plant response rating, Foxtail, Giant: 85
[3]; [11]
  Plant response rating, Barnyardgrass: 90
[3]; [12]
  Plant response rating, Barnyardgrass: 90
[3]; [13]
  Plant response rating, Barnyardgrass: 75
[3]; [14]
  Plant response rating, Barnyardgrass: 90
[4]; [11]
  Plant response rating, Morningglory: 90
[4]; [12]
  Plant response rating, Morningglory: 95
[4]; [13]
  Plant response rating, Morningglory: 100
[4]; [14]
  Plant response rating, Morningglory: 100
[5]; [11]
  Plant response rating, Pigweed: 85
[5]; [12]
  Plant response rating, Pigweed: 95
[5]; [13]
  Plant response rating, Pigweed: 80
[5]; [14]
  Plant response rating, Pigweed: 90
[6]; [11]
  Plant response rating, Crabgrass: 45
[6]; [12]
  Plant response rating, Crabgrass: 70
[6]; [13]
  Plant response rating, Crabgrass: 30
[6]; [14]
  Plant response rating, Crabgrass: 75
[7]; Postemergence, 16 g ai/ha
  Plant response rating (scale of 0 to 100), Cocklebur: 100
[7]; Postemergence, 31 g ai/ha
  Plant response rating (scale of 0 to 100), Cocklebur: 100
[7]; Postemergence, 62 g ai/ha
  Plant response rating (scale of 0 to 100), Cocklebur: 100
[7]; [18]
  Cocklebur plant response rating: 100
[7]; [15]
  Plant response rating, Cocklebur: 65
[7]; [16]
  Plant response rating, Cocklebur: 90
[7]; [17]
  Plant response rating, Cocklebur: 90
[7]; 125 g ai/ha, scale 0 to 100
  Plant response rating, Cocklebur: 90
[8]; Postemergence, 16 g ai/ha
  Plant response rating (scale of 0 to 100), Pigweed: 85
[8]; Postemergence, 31 g ai/ha
  Plant response rating (scale of 0 to 100), Pigweed: 95
[8]; Postemergence, 62 g ai/ha
  Plant response rating (scale of 0 to 100), Pigweed: 100
[8]; [18]
  Pigweed plant response rating: 100
[8]; 16 g ai/ha
  Plant response rating, Pigweed: 60
[8]; 31 g ai/ha
  Plant response rating, Pigweed: 80
[8]; 62 g ai/ha
  Plant response rating, Pigweed: 80
Kochia (Kochia scoparia); Postemergence, 16 g ai/ha
  Plant response rating (scale of 0 to 100), Kochia: 90
Kochia (Kochia scoparia); Postemergence, 31 g ai/ha
  Plant response rating (scale of 0 to 100), Kochia: 95
Kochia (Kochia scoparia); Postemergence, 62 g ai/ha
  Plant response rating (scale of 0 to 100), Kochia: 95
Kochia (Kochia scoparia); [18]
  Kochia plant response rating: 100
Kochia (Kochia scoparia); [15]
  Plant response rating, Kochia: 70
Kochia (Kochia scoparia); [16]
  Plant response rating, Kochia: 90
Kochia (Kochia scoparia); [17]
  Plant response rating, Kochia: 95
Kochia (Kochia scoparia); 125 g ai/ha, scale 0 to 100
  Plant response rating, Kochia: 100
[9]; Postemergence, 16 g ai/ha
  Plant response rating (scale of 0 to 100), Crabgrass: 55
[9]; Postemergence, 31 g ai/ha
  Plant response rating (scale of 0 to 100), Crabgrass: 75
[9]; Postemergence, 62 g ai/ha
  Plant response rating (scale of 0 to 100), Crabgrass: 85
[9]; [18]
  Crabgrass plant response rating: 90
[9]; [15]
  Plant response rating, Crabgrass: 0
[9]; [16]
  Plant response rating, Crabgrass: 0
[9]; [17]
  Plant response rating, Crabgrass: 5
[9]; 125 g ai/ha, scale 0 to 100
  Plant response rating, Crabgrass: 60
[10]; Postemergence, 16 g ai/ha
  Plant response rating (scale of 0 to 100), Johnsongrass: 25
[10]; Postemergence, 31 g ai/ha
  Plant response rating (scale of 0 to 100), Johnsongrass: 65
[10]; [18]
  Johnsongrass plant response rating: 95
[10]; [15]
  Plant response rating, Johnsongrass: 0
[10]; [16]
  Plant response rating, Johnsongrass: 0
[10]; [17]
  Plant response rating, Johnsongrass: 20
[10]; 125 g ai/ha, scale 0 to 100
  Plant response rating, Johnsongrass: 50
